{"source": "patent US20240325409A1", "about": "“Fused Heterotetracyclic Antiviral Agents” (Enanta Pharmaceuticals, Inc., priority 2023, published 2024)", "data": [{"test_system": "HBV", "assay": "HBV infection of HepG2-NTCP cells, HBeAg AlphaLISA readout", "type": "cell-based", "settings": "Hepatitis B virus, 192 h, 2000 GE/cell, HBeAg in supernatant at day 8 post infection, 50% reduction relative to DMSO controls, read-out: Cellular EC50", "procedure": "HepG2-NTCP A3 cells were maintained in DMEM media supplemented with GlutaMAX™, 10% fetal bovine serum, 1% penicillin/streptomycin, and 5 ug/mL puromycin at 37° C. in a humidified atmosphere with 5% CO2 in a collagen-coated tissue culture flask.\nHepG2-NTCP cells were seeded in 384 well plate containing 16,000 cells/well two days prior to the infection. On the day of infection, compounds were 3-fold serially diluted in DMSO and pre-incubated with HepG2-NTCP cells for two hours before purified HBV addition. HBV infection was carried out at 2000 GE/cell with 4% PEG, and the final concentration of DMSO is 0.5%. On day one post infection, HBV-containing media was aspirated, cells were washed once with PBS and then maintained in 2.5% DMSO containing media for the remainder of the assay.\nSupernatants from infected HepG2-NTCP cells were collected at day 8 post infection, and the amount of viral antigen HBeAg was measured by HBeAg AlphaLISA detection kit (PerkinElmer) following the manufacturer's recommended protocol. Irrespective of readout, compound concentrations that reduce viral product accumulation in supernatants by 50% relative to DMSO controls (EC50) are reported. EC50 ranges are as follows: A<0.1 µM; B 0.1-1 µM; C>1 µM.", "units": {"EC50": "nM"}, "values": [{"smiles": "CN1[C@H](C2CC2)CN(c2ccccc2)c2cc3c(cc2S1(=O)=O)-c1cc(C(=O)O)ccc1CO3", "note": "[Example 2, (R)-10-cyclopropyl-11-methyl-8-phenyl-8,9,10,11-tetrahydro-5H-benzo[3,4]chromeno[7,6-f][1,2,5]thiadiazepine-2-carboxylic acid 12,12-dioxide]", "EC50": "100 to 1000"}, {"smiles": "CN1[C@H](CC2CC2)CN(c2ccccc2)c2cc3c(cc2S1(=O)=O)-c1cc(C(=O)O)ccc1CO3", "note": "[Example 3]", "EC50": "100 to 1000"}, {"smiles": "CC(C)C[C@@H]1CN(c2ccccc2)c2cc3c(cc2S(=O)(=O)N1C)-c1cc(C(=O)O)ccc1CO3", "note": "[Example 4, (R)-10-isobutyl-11-methyl-8-phenyl-8,9,10,11-tetrahydro-5H-benzo[3,4]chromeno[7,6-f][1,2,5]thiadiazepine-2-carboxylic acid 12,12-dioxide]", "EC50": "< 100"}, {"smiles": "CN1[C@H](CC(C)(C)C)CN(c2ccccc2)c2cc3c(cc2S1(=O)=O)-c1cc(C(=O)O)ccc1CO3", "note": "[Example 5]", "EC50": "< 100"}, {"smiles": "CC(C)[C@@H]1CN(c2ccccc2)c2cc3c(cc2S(=O)(=O)N1C)-c1cc(C(=O)O)ccc1CO3", "note": "[Example 6]", "EC50": "100 to 1000"}, {"smiles": "CCCC[C@@H]1CN(c2ccccc2)c2cc3c(cc2S(=O)(=O)N1C)-c1cc(C(=O)O)ccc1CO3", "note": "[Example 7, (R)-10-butyl-11-methyl-8-phenyl-8,9,10,11-tetrahydro-5H-benzo[3,4]chromeno[7,6-f][1,2,5]thiadiazepine-2-carboxylic acid 12,12-dioxide]", "EC50": "< 100"}, {"smiles": "CN1[C@H](C2CCCCC2)CN(c2ccccc2)c2cc3c(cc2S1(=O)=O)-c1cc(C(=O)O)ccc1CO3", "note": "[Example 8]", "EC50": "< 100"}, {"smiles": "CCCC[C@@H]1CN(c2ccccc2)c2cc3c(cc2S(=O)(=O)N1C)-c1cccc(C(=O)O)c1CO3", "note": "[Example 9]", "EC50": "> 1000"}, {"smiles": "CCCC[C@@H]1CN(c2ccccc2)c2cc3c(cc2S(=O)(=O)N1C)-c1cc(C(=O)O)c(F)cc1CO3", "note": "[Example 10, (R)-10-butyl-3-fluoro-11-methyl-8-phenyl-8,9,10,11-tetrahydro-5H-benzo[3,4]chromeno[7,6-f][1,2,5]thiadiazepine-2-carboxylic acid 12,12-dioxide]", "EC50": "< 100"}, {"smiles": "CCCC[C@@H]1CN(c2ccccc2)c2cc3c(cc2S(=O)(=O)N1C)-c1nc(C(=O)O)ccc1CO3", "note": "[Example 11, (R)-10-butyl-11-methyl-8-phenyl-8,9,10,11-tetrahydro-5H-pyrido[3′,2′:3,4]chromeno[7,6-f][1,2,5]thiadiazepine-2-carboxylic acid 12,12-dioxide]", "EC50": "> 1000"}, {"smiles": "CC(C)C[C@@H]1CN(c2ccccc2)c2cc3c(cc2S(=O)(=O)N1C)-c1cc(C(=O)O)c(F)c(F)c1CO3", "note": "[Example 12, (R)-3,4-difluoro-10-isobutyl-11-methyl-8-phenyl-8,9,10,11-tetrahydro-5H-benzo[3,4]chromeno[7,6-f][1,2,5]thiadiazepine-2-carboxylic acid 12,12-dioxide]", "EC50": "< 100"}, {"smiles": "CN1[C@H](C2CCC2)CN(c2ccccc2)c2cc3c(cc2S1(=O)=O)-c1cc(C(=O)O)c(F)c(F)c1CO3", "note": "[Example 13]", "EC50": "< 100"}, {"smiles": "CN1[C@H](C2CCCCC2)CN(c2ccccc2)c2cc3c(cc2S1(=O)=O)-c1cc(C(=O)O)c(F)c(F)c1CO3", "note": "[Example 14]", "EC50": "< 100"}, {"smiles": "CCCC[C@@H]1CN(c2ccccc2)c2cc3c(cc2S(=O)(=O)N1C)-c1cc(C(=O)O)sc1CO3", "note": "[Example 15, (R)-9-butyl-10-methyl-7-phenyl-7,8,9,10-tetrahydro-4H-thieno[2′,3′:3,4]chromeno[7,6-f][1,2,5]thiadiazepine-2-carboxylic acid 11,11-dioxide]", "EC50": "< 100"}, {"smiles": "CN1[C@H](C2CCC2)CN(c2ccccc2)c2cc3c(cc2S1(=O)=O)-c1cc(C(=O)O)sc1CO3", "note": "[Example 16]", "EC50": "< 100"}, {"smiles": "CCCC[C@@H]1CN(c2ccccc2)c2cc3c(cc2S(=O)(=O)N1C)-c1cc(C(=O)O)c(F)c(F)c1CO3", "note": "[Example 17]", "EC50": "< 100"}, {"smiles": "CC(C)C[C@@H]1CN(c2ccccc2)c2cc3c(cc2S(=O)(=O)N1C)-c1cc(C(=O)O)sc1CO3", "note": "[Example 18, (R)-9-isobutyl-10-methyl-7-phenyl-7,8,9,10-tetrahydro-4H-thieno[2′,3′:3,4]chromeno[7,6-f][1,2,5]thiadiazepine-2-carboxylic acid 11,11-dioxide]", "EC50": "< 100"}, {"smiles": "CN1[C@H](C2CCCCC2)CN(c2ccccc2)c2cc3c(cc2S1(=O)=O)-c1cc(C(=O)O)sc1CO3", "note": "[Example 19]", "EC50": "< 100"}, {"smiles": "CCCC[C@@H]1CN(c2ccccc2)c2cc3c(cc2S(=O)(=O)N1C)-c1cc(C(=O)O)ccc1[C@H](C(F)(F)F)O3", "note": "[Example 21a, (5R,10R)-10-butyl-11-methyl-8-phenyl-5-(trifluoromethyl)-8,9,10,11-tetrahydro-5H-benzo[3,4]chromeno[7,6-f][1,2,5]thiadiazepine-2-carboxylic acid 12,12-dioxide]", "EC50": "100 to 1000"}, {"smiles": "CCCC[C@@H]1CN(c2ccccc2)c2cc3c(cc2S(=O)(=O)N1C)-c1cc(C(=O)O)ccc1[C@@H](C(F)(F)F)O3", "note": "[Example 21b, (5S,10R)-10-butyl-11-methyl-8-phenyl-5-(trifluoromethyl)-8,9,10,11-tetrahydro-5H-benzo[3,4]chromeno[7,6-f][1,2,5]thiadiazepine-2-carboxylic acid 12,12-dioxide]", "EC50": "100 to 1000"}, {"smiles": "CCCC[C@@H]1CN(c2ccccc2)c2cc3c(cc2S(=O)(=O)N1C)-c1cc(C(=O)O)ccc1[C@H](C(C)(C)C)O3", "note": "[Example 22a, (5S,10R)-5-(tert-butyl)-10-butyl-11-methyl-8-phenyl-8,9,10,11-tetrahydro-5H-benzo[3,4]chromeno[7,6-f][1,2,5]thiadiazepine-2-carboxylic acid 12,12-dioxide]", "EC50": "> 1000"}, {"smiles": "CCCC[C@@H]1CN(c2ccccc2)c2cc3c(cc2S(=O)(=O)N1C)-c1cc(C(=O)O)ccc1[C@@H](C(C)(C)C)O3", "note": "[Example 22b, (5R,10R)-5-(tert-butyl)-10-butyl-11-methyl-8-phenyl-8,9,10,11-tetrahydro-5H-benzo[3,4]chromeno[7,6-f][1,2,5]thiadiazepine-2-carboxylic acid 12,12-dioxide]", "EC50": "> 1000"}, {"smiles": "CCCC[C@@H]1CN(c2ccccc2)c2cc3c(cc2S(=O)(=O)N1C)-c1cc(C(=O)O)ccc1C(C)(C)O3", "note": "[Example 23, (R)-10-butyl-5,5,11-trimethyl-8-phenyl-8,9,10,11-tetrahydro-5H-benzo[3,4]chromeno[7,6-f][1,2,5]thiadiazepine-2-carboxylic acid 12,12-dioxide]", "EC50": "100 to 1000"}, {"smiles": "CCCCC1CN(c2ccccc2)c2cc3c(cc2S(=O)(=O)N1C)-c1cc(C(=O)O)ccc1OC3", "note": "(stereo not drawn) [Example 24, 10-butyl-11-methyl-8-phenyl-8,9,10,11-tetrahydro-6H-benzo[3,4]isochromeno[7,6-f][1,2,5]thiadiazepine-2-carboxylic acid 12,12-dioxide]", "EC50": "100 to 1000"}, {"smiles": "CN1[C@H](C2CCCCC2)CNc2cc3c(cc2S1(=O)=O)-c1cc(C(=O)O)ccc1CO3", "note": "[Example 25, (R)-10-cyclohexyl-11-methyl-8,9,10,11-tetrahydro-5H-benzo[3,4]chromeno[7,6-f][1,2,5]thiadiazepine-2-carboxylic acid 12,12-dioxide]", "EC50": "> 1000"}, {"smiles": "CCCC[C@@H]1CN(c2ccccc2)c2cc3c(cc2S(=O)(=O)N1C)-c1cc(C(=O)O)ccc1CN3C", "note": "[Example 27, (R)-10-butyl-6,11-dimethyl-8-phenyl-5,6,8,9,10,11-hexahydro-[1,2,5]thiadiazepino[7,6-b]phenanthridine-2-carboxylic acid 12,12-dioxide]", "EC50": "< 100"}, {"smiles": "CCCC[C@@H]1CN(c2ccccc2)c2cc3c(cc2S(=O)(=O)N1C)-c1cc(C(=O)O)ccc1CN3C(C)C", "note": "[Example 28]", "EC50": "100 to 1000"}, {"smiles": "CCCC[C@@H]1CN(c2ccccc2)c2cc3c(cc2S(=O)(=O)N1C)-c1cc(C(=O)O)ccc1CN3", "note": "[Example 29]", "EC50": "100 to 1000"}, {"smiles": "CN1[C@H](C2CCCCC2)CN(c2ccccc2)c2cc3c(cc2S1(=O)=O)-c1cc(C(=O)O)ccc1CN3c1ccccc1F", "note": "[Example 30]", "EC50": "> 1000"}, {"smiles": "CN1Cc2ccc(C(=O)O)cc2-c2cc3c(cc21)NC[C@@H](C1CCCCC1)N(C)S3(=O)=O", "note": "[Example 31, (R)-10-cyclohexyl-6,11-dimethyl-5,6,8,9,10,11-hexahydro-[1,2,5]thiadiazepino[7,6-b]phenanthridine-2-carboxylic acid 12,12-dioxide]", "EC50": "> 1000"}, {"smiles": "CN1[C@H](C2CCCCC2)CNc2cc3c(cc2S1(=O)=O)-c1cc(C(=O)O)ccc1CN3c1ccccc1F", "note": "[Example 32]", "EC50": "100 to 1000"}, {"smiles": "CCCC[C@@H]1CN(c2ccccc2)c2cc3c(cc2S(=O)(=O)N1C)-c1cc(C(=O)O)ccc1C1(CC1)N3", "note": "[Example 33, (R)-10′-butyl-11′-methyl-8′-phenyl-8′,9′,10′,11′-tetrahydro-6′H-spiro[cyclopropane-1,5′-[1,2,5]thiadiazepino[7,6-b]phenanthridine]-2′-carboxylic acid 12′,12′-dioxide]", "EC50": "> 1000"}, {"smiles": "CCCC[C@@H]1CN(c2ccccc2)c2cc3oc4ccc(C(=O)O)cc4c3cc2S(=O)(=O)N1C", "note": "[Example 34, (R)-3-butyl-2-methyl-5-phenyl-2,3,4,5-tetrahydrobenzo[2,3]benzofuro[6,5-f][1,2,5]thiadiazepine-10-carboxylic acid 1,1-dioxide]", "EC50": "100 to 1000"}]}]}
